Laboratory results as given in ChEMBL document CHEMBL5038669, “Development of the First Covalent Monopolar Spindle Kinase 1 (MPS1/TTK) Inhibitor” (J Med Chem, 2022).

Key:
[1] = molecular target: Cyclin-G-associated kinase (Homo sapiens) (UniProt O14976); assay: Binding affinity to human GAK assessed as thermal stability by measuring melting temperature 10 uM by differential scanning fluorimetry
[2] = molecular target: T1, Serine/threonine-protein kinase 17B (Homo sapiens) (UniProt O94768); conditions: dose 10.0 µM
T1 sequence (whole entry): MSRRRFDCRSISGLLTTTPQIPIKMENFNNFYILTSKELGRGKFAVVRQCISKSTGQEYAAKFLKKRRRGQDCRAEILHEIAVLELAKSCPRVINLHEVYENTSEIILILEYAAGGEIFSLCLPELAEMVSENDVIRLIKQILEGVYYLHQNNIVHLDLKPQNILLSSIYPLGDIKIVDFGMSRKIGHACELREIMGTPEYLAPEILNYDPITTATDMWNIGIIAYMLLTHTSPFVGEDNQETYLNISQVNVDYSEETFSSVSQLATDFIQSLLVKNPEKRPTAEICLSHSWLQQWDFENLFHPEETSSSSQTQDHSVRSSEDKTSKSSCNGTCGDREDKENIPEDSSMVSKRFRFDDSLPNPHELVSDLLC

Chain of Cyclin-G-associated kinase (Homo sapiens) (O14976 whole entry): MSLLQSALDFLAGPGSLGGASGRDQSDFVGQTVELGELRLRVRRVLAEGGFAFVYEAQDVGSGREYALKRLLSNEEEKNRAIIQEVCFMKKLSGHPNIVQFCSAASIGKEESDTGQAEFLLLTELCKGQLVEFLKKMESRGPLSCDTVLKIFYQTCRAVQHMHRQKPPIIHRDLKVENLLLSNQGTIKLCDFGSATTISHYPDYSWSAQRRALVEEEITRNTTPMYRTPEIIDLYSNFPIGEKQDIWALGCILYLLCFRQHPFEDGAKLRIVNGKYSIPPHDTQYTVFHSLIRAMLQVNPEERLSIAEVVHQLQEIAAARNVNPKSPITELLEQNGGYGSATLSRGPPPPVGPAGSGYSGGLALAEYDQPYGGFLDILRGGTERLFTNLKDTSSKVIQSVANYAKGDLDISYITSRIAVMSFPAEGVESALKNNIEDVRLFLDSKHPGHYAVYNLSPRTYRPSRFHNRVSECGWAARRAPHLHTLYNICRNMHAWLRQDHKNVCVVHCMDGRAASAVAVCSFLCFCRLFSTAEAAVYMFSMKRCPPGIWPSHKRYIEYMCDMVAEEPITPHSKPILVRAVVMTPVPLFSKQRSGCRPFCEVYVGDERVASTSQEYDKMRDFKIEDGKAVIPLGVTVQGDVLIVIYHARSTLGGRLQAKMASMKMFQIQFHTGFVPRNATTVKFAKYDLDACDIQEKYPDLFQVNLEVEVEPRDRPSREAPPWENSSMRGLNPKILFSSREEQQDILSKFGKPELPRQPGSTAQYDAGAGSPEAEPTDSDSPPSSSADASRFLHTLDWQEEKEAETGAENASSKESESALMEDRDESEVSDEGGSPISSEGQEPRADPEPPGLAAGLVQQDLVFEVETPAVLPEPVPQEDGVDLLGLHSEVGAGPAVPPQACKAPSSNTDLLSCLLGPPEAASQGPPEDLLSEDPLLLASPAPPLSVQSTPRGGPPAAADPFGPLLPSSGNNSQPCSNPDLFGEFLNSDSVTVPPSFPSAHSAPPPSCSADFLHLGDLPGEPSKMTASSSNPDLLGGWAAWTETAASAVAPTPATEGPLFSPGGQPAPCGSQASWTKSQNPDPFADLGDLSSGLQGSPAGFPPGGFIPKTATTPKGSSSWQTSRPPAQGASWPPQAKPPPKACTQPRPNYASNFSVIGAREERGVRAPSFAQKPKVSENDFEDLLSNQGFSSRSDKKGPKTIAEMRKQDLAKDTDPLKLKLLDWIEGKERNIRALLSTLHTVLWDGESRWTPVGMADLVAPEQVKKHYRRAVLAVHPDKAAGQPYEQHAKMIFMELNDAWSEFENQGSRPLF

| SMILES | ΔTm [1] | ΔTm [2] |
| --- | --- | --- |
| CCc1cccc(CC)c1NC(=O)c1ccn2c1CCc1cnc(Nc3ccc(N4CCN(C)CC4)cc3OC)nc1-2 | 13.2 °C | 21.6 °C |
| COc1ccc(Oc2cc(NCCC(F)(F)F)c3ncc(-c4ccc(C(=O)NC5CC5)c(C)c4)n3n2)c(F)c1F |  | 19.1 °C |
